By EC50 is commonly meant the concentration at which the effect is half-maximal. Low values mean greater potency, high ones weaker potency.

These results are taken from patent US20220056019A1, “FARNESOID X RECEPTOR AGONISTS AND USES THEREOF” (Metacrine, Inc., priority 2018, published 2022).

The assay concerns the target T1, hFXR (Homo sapiens, UniProt Q96RI1).
T1 construct: expressed in transfected cells; host or cells: CV-1 cells
T1 sequence (Q96RI1 1-486): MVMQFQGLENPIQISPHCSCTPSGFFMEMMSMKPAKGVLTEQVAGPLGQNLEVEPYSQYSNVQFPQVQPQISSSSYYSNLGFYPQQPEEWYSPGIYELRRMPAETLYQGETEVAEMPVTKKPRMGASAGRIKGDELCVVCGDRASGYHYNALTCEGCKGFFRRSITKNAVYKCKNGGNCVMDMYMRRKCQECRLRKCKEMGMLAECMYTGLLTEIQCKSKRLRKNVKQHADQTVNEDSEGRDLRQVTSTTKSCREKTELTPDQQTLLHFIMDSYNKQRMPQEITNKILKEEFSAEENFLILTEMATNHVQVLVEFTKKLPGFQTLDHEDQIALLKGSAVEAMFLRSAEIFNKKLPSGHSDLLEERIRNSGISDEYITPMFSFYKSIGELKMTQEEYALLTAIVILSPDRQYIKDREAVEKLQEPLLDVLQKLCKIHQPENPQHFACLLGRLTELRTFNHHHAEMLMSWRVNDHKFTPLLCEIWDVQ
T1 sequence (P19793 1-462 partner): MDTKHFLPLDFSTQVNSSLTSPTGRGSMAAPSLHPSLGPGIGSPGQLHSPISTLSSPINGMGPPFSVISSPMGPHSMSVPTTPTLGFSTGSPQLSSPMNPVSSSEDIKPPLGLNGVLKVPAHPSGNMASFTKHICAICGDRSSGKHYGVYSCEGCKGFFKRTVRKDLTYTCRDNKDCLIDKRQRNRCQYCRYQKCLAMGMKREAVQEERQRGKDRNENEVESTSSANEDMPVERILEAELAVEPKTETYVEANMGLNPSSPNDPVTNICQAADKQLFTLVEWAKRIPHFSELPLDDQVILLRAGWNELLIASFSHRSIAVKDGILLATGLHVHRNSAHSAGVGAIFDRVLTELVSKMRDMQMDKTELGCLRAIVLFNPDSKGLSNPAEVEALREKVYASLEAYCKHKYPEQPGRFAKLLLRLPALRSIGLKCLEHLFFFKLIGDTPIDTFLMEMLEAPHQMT
Briefly: In Vitro FXR Assay (TK): TK-ECRE-luc reporter in transfected CV-1 cells. Type of assay: cell-based. To be noted: 18 hrs incubation, luminescence. In outline:
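Luminescence from a TK-ECRE-luc reporter was read after 18 h of compound exposure in CV-1 cells. These cells were grown in charcoal-stripped FBS medium and transiently transfected with hFXR, hRXR and YFP expression plasmids.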
The compound `CC(C)n1cc(-c2ccnc(N(CC34CCC(C5CCC(C)(C)CC5)(CC3)CC4)C(=O)[C@H]3CC[C@H](OC(=O)N4CC(O)C4)CC3)c2)cn1` [Compound 26.19, 4-(((4-(4,4-Dimethylcyclohexyl)bicyclo[2.2.2]octan-1-yl)methyl)(4-(1-isopropyl-1H-pyrazol-4-yl)pyridin-2-yl)carbamoyl)cyclohexyl trans-3-hydroxyazetidine-1-carboxylate] yielded an EC50 of 50 to 1000 nM.
Under `COc1ccc([C@H]2CC[C@H](CN(c3cc(-c4cnc(C5CC5)o4)ccn3)C(=O)[C@H]3CC[C@H](OC(=O)NCC(C)(C)O)CC3)CC2)cc1C` [Compound 2.50, trans-4-((4-(2-Cyclopropyloxazol-5-yl)pyridin-2-yl)((trans-4-(4-methoxy-3-methylphenyl)cyclohexyl)methyl)carbamoyl)cyclohexyl (2-hydroxy-2-methylpropyl)carbamate] stands not above 50 nM; under `COc1ccc([C@H]2CC[C@H](CN(c3cc(-c4coc(C5CC5)n4)ccn3)C(=O)[C@H]3CC[C@H](OC(=O)NCC(C)(C)O)CC3)CC2)cc1C` [Compound 2.02, trans-4-((4-(2-Cyclopropyloxazol-4-yl)pyridin-2-yl)((trans-4-(4-methoxy-3-methylphenyl)cyclohexyl)methyl)carbamoyl) cyclohexyl(2-hydroxy-2-methylpropyl)carbamate], not above 50 nM.
Under `COc1ccc(C23CCC(CN(c4cc(-c5cnc(C6CC6)s5)ccn4)C(=O)[C@H]4CC[C@H](OC(=O)N5CC(O)C5)CC4)(CC2)CC3)cc1C` [Compound 4.01, 4-((4-(2-Cyclopropylthiazol-5-yl)pyridin-2-yl)((4-(4-methoxy-3-methylphenyl)bicyclo[2.2.2]octan-1-yl)methyl)carbamoyl) cyclohexyl 3-hydroxyazetidine-trans-1-carboxylate] stands not above 50 nM.
With `COc1ccc([C@H]2CC[C@H](CN(c3cc(-c4cnc(C(C)C)s4)ccn3)C(=O)[C@H]3CC[C@H](OC(=O)NC4COC4)CC3)CC2)cc1C` [Compound 2.55, trans-4-((4-(2-Isopropylthiazol-5-yl)pyridin-2-yl)(((trans)-4-(4-methoxy-3-methylphenyl)cyclohexyl)methyl)carbamoyl)cyclohexyl oxetan-3-ylcarbamate] the figure was not above 50 nM; with `COc1ccc([C@H]2CC[C@H](CN(c3cc(-c4cnc(C5CC5)s4)ccn3)C(=O)[C@H]3CC[C@H](OC(=O)NC4COC4)CC3)CC2)cc1C` [Compound 2.54, trans-4-((4-(2-Cyclopropylthiazol-5-yl)pyridin-2-yl)(((trans)-4-(4-methoxy-3-methylphenyl)cyclohexyl)methyl)carbamoyl)cyclohexyl oxetan-3-ylcarbamate], not above 50 nM.
Consider `COc1ccc([C@H]2CC[C@H](CN(c3cc(-c4cc(C5CC5)no4)ccn3)C(=O)[C@H]3CC[C@H](OC(=O)N4CC(O)C4)CC3)CC2)cc1C` [Compound 2.38, trans-4-((4-(3-Cyclopropylisoxazol-5-yl)pyridin-2-yl)((trans-4-(4-methoxy-3-methylphenyl)cyclohexyl)methyl)carbamoyl)cyclohexyl 3-hydroxyazetidine-1-carboxylate], for which the EC50 is not above 50 nM.
With `COc1ccc(C23CCC(CN(c4cc(-c5cc(C6CC6)on5)ccn4)C(=O)[C@H]4CC[C@H](OC(=O)N5CC(O)C5)CC4)(CC2)CC3)cc1C` [Compound 4.26, 4-((4-(5-Cyclopropylisoxazol-3-yl)pyridin-2-yl)((4-(4-methoxy-3-methylphenyl)bicyclo[2.2.2]octan-1-yl)methyl)carbamoyl) cyclohexyl 3-hydroxyazetidine-trans-1-carboxylate] the figure was not above 50 nM; with `COc1ccc(C23CCC(CN(c4cncc(-c5cnn(C(C)C)c5)n4)C(=O)[C@H]4CC[C@H](OC(=O)N5CC(O)C5)CC4)(CC2)CC3)cc1C` [Compound 25.28, 4-((6-(1-Isopropyl-1H-pyrazol-4-yl)pyrazin-2-yl)((4-(4-methoxy-3-methylphenyl)bicyclo[2.2.2]octan-1-yl)methyl)carbamoyl)cyclohexyl trans-3-hydroxyazetidine-1-carboxylate], not above 50 nM.
